Experimental data taken from PMC8880385 (Pharmaceuticals, 2022).

Experiments:
O. volvulus pre-adult L5 [1] = assay: O. volvulus pre-adult (Ov L5) motility assay; assay type: cell-based, Onchocerca volvulus; settings: Onchocerca volvulus, Day 36 @ 1 µM; 14 days drug then washout
Method: O. volvulus adult male and female worms, which can only be obtained from infected individuals, are not readily accessible for ex vivo studies. Moreover, since there is no small animal model that can maintain infections by O. volvulus, a recently developed in vitro system was used to evaluate the macrofilaricidal effects on pre-adult worms. All compounds except for 04 were tested in this O. volvulus pre-adult/L5 motility and viability assay.
Briefly, Ov L3 larvae were cultured to the pre-adult/L5 stage in vitro as described by Voronin et al., 2019 [45]. Once larvae reached the L5 stage (after at least 70 days in culture), 8–10 Ov L5 were moved to new transwell inserts in a 24-well plate containing 0.5 mL Ov L4-CMS media seeded with a 3 × 10^4/well Human Umbilical Vein Endothelial Cells (HUVEC) monolayer. Duplicate wells were treated with 1 and/or 10 µM of compound. Ov L5 were exposed to compounds for 14 days (exchanged 50% of media with fresh compound every two days) and then cultured with new media without compound, exchanging 50% of media every 2–3 days, up to day 36. Control Ov L5 were treated with 0.05% DMSO. Concentrations were chosen based on activity in the B. pahangi female motility assay. Motility was assessed visually and ranked on a 0–100% scale every 2–3 days over the course of the assay. At the end of the motility assay, Ov L5 viability was measured by 3-(4,5-dimethylthiazol-2-yl)-2,5-diphenyltetrazolium bromide (MTT) assay. Ov L5 were incubated with 0.1% MTT in PBS at 37 °C for 1 h then visually inspected for blue coloration indicating MTT reduction. Worms were considered dead if <50% of the worm was stained blue, and worms were considered alive if >50% of the worm was stained blue.

O. volvulus pre-adult L5 [2] = assay: O. volvulus pre-adult (Ov L5) motility assay; assay type: cell-based; settings: Onchocerca volvulus, 504 h; on Day 21; read-out: O. volvulus L5 Inhibition of Motility IC50

SMILES: Cc1ccc2c(ccc(/C=C/c3c(C)nn(-c4ccccc4)c3C)[n+]2C)c1.[I-] [Analog 06, 2-[(E)-2-(3,5-dimethyl-1-phenyl-1H-pyrazol-4-yl)ethenyl]-1,6-dimethylquinolin-1-ium iodide]
- inhibition at 1 µM (O. volvulus pre-adult L5 [1]): > 90%
- IC50 (O. volvulus pre-adult L5 [2]): 220 nM
